Assays:
Aphis craccivoral = experiment: Insecticidal activity against Aphis craccivoral by immersing (dipping aphids on bean sprout); type: in vivo; settings: 500 ppm; immersing (dipped 5 seconds); counted after 24 hours; 23° C.
Procedure: (§1) Test on the insecticidal activity of Compound Nos. 1-227
Aphis, which belongs to Homoptera and has a piercing-sucking mouthpart, is a common insect for agricultural plant. Aphis craccivoral was tested by the way of immersing.
Test method: exactly weighed various samples were independently added to N,N-dimethylformamide to form a 10 g/L stock solution. The mixture was diluted with 0.2 mL/L aqueous Triton X-100 solution to a concentration of 500 ug/mL. After stably sucking on bean sprout, the adult aphis without wings together with bean sprout was dipped into 500 ug/mL dilution, taken out after 5 seconds, and the excess dilution was sucked out with bibulous paper and the adult aphis without wings was incubated in clean vessel at a constant temperature of 23° C. Each concentration was repeated for 3 times and the control group contained 0.2 mL/L aqueous Triton X-100 solution. The number of killed aphis was counted after 24 hours to calculate the mortality.

Nilaparvata lugens = experiment: Insecticidal activity against Nilaparvata lugens (planthopper) by spraying; type: in vivo; settings: 500 ppm; spraying 2 ml; counted after 24 hours
Procedure: as §1
Planthopper, which belongs to Homoptera and has a piercing-sucking mouthpart, is a common insect for agricultural plant. Nilaparvata lugens was tested by the way of spraying.
Test method: the test compound was exactly formulated into a solution having a certain concentration and clean water was used as a blank control. Each process was repeated for 3 tumblers (3 times). 2 ml of solution was sprayed uniformly to each tumbler by a mini manual sprayer. 10 Nilaparvata lugens were introduced to every sink 6 hours before spraying. Three series of experiments were conducted. The number of killed Nilaparvata lugens was counted after 24 hours to calculate the mortality.

SMILES	mortality (%) (500 ppm) Aphis (Aphis craccivoral)	mortality (%) (500 ppm) Nilaparvata lugens (Nilaparvata lugens)
CCC(C)OC1CCC([N+](=O)[O-])=C2N(CC3CCOC3)CCCN21 (centres unmarked) [Compound 109]	2	10
CC(C)(C)OC1CCC([N+](=O)[O-])=C2N(CC3CCOC3)CCCN21 (centres unmarked) [Compound 110]	67	98
O=[N+]([O-])C1=C2N(Cc3ccc(Cl)nc3)CCN2C(Oc2ccccc2)CC1 (centres unmarked) [Compound 112]	38	75
CC(=O)OC1CCC([N+](=O)[O-])=C2N(Cc3ccc(Cl)nc3)CCN21 (centres unmarked) [Compound 113]	45	77
CCC(=O)OC1CCC([N+](=O)[O-])=C2N(Cc3ccc(Cl)nc3)CCN21 (centres unmarked) [Compound 114]	56	88
O=C(OC1CCC([N+](=O)[O-])=C2N(Cc3ccc(Cl)nc3)CCN21)C(Cl)(Cl)Cl (centres unmarked) [Compound 115]	0	33
O=C(OC1CCC([N+](=O)[O-])=C2N(Cc3ccc(Cl)nc3)CCN21)C(F)(F)F (centres unmarked) [Compound 116]	2	45
CS(=O)(=O)OC1CCC([N+](=O)[O-])=C2N(Cc3ccc(Cl)nc3)CCN21 (centres unmarked) [Compound 117]	19	65
O=[N+]([O-])C1=C2N(Cc3ccc(Cl)nc3)CCN2C(OS(=O)(=O)C(F)(F)F)CC1 (centres unmarked) [Compound 118]	81	100
O=[N+]([O-])C1=C2N(Cc3ccc(Cl)nc3)CCN2C(OS(=O)(=O)c2ccccc2)CC1 (centres unmarked) [Compound 119]	3	23
O=C(OC1CCC([N+](=O)[O-])=C2N(Cc3ccc(Cl)nc3)CCN21)c1cccnc1 (centres unmarked) [Compound 120]	1	5
O=C(OC1CCC([N+](=O)[O-])=C2N(Cc3ccc(Cl)nc3)CCN21)c1ccccn1 (centres unmarked) [Compound 121]	0	8
O=C(OC1CCC([N+](=O)[O-])=C2N(Cc3ccc(Cl)nc3)CCN21)c1ccccc1 (centres unmarked) [Compound 122]	56	23
O=C(OC1CCC([N+](=O)[O-])=C2N(Cc3ccc(Cl)nc3)CCN21)c1ccc(F)cc1 (centres unmarked) [Compound 123]	56	100
O=C(OC1CCC([N+](=O)[O-])=C2N(Cc3ccc(Cl)nc3)CCN21)c1ccc(Cl)cc1 (centres unmarked) [Compound 124]	22	0
O=C(OC1CCC([N+](=O)[O-])=C2N(Cc3ccc(Cl)nc3)CCN21)c1cc(F)c(Cl)cc1Cl (centres unmarked) [Compound 125]	67	92
O=C(OC1CCC([N+](=O)[O-])=C2N(Cc3ccc(Cl)nc3)CCN21)c1ccc(C(F)(F)F)cc1 (centres unmarked) [Compound 126]	93	100
O=C(OC1CCC([N+](=O)[O-])=C2N(Cc3ccc(Cl)nc3)CCN21)c1cc(F)c(F)cc1F (centres unmarked) [Compound 127]	45	78
O=C(OC1CCC([N+](=O)[O-])=C2N(Cc3ccc(Cl)nc3)CCN21)c1cc(F)c(F)c(F)c1F (centres unmarked) [Compound 128]	0	21
O=C(OC1CCC([N+](=O)[O-])=C2N(Cc3ccc(Cl)nc3)CCN21)c1ccccc1F (centres unmarked) [Compound 129]	0	34
O=C(OC1CCC([N+](=O)[O-])=C2N(Cc3ccc(Cl)nc3)CCN21)c1cc(F)c(F)c([N+](=O)[O-])c1F (centres unmarked) [Compound 130]	23	67
O=C(OC1CCC([N+](=O)[O-])=C2N(Cc3ccc(Cl)nc3)CCN21)c1ccc(Cl)c(Cl)c1 (centres unmarked) [Compound 131]	3	0
CSC1CCC([N+](=O)[O-])=C2N(Cc3ccc(Cl)nc3)CCN21 (centres unmarked) [Compound 132]	100	100
CCSC1CCC([N+](=O)[O-])=C2N(Cc3ccc(Cl)nc3)CCN21 (centres unmarked) [Compound 133]	100	100
O=[N+]([O-])C1=C2N(Cc3ccc(Cl)nc3)CCN2C(SCC(F)(F)F)CC1 (centres unmarked) [Compound 135]	98	100

SMILES	mortality (%) (500 ppm) Aphis (Aphis craccivoral)	mortality (%) (500 ppm) Nilaparvata lugens (Nilaparvata lugens)
CCCSC1CCC([N+](=O)[O-])=C2N(Cc3ccc(Cl)nc3)CCN21 (centres unmarked) [Compound 136]	100	100
CC(C)SC1CCC([N+](=O)[O-])=C2N(Cc3ccc(Cl)nc3)CCN21 (centres unmarked) [Compound 137]	89	100
O=[N+]([O-])C1=C2N(Cc3ccc(Cl)nc3)CCN2C(SC(C(F)(F)F)C(F)(F)F)CC1 (centres unmarked) [Compound 138]	45	98
CCCCSC1CCC([N+](=O)[O-])=C2N(Cc3ccc(Cl)nc3)CCN21 (centres unmarked) [Compound 139]	34	78
CC(C)CSC1CCC([N+](=O)[O-])=C2N(Cc3ccc(Cl)nc3)CCN21 (centres unmarked) [Compound 140]	67	78
CCC(C)SC1CCC([N+](=O)[O-])=C2N(Cc3ccc(Cl)nc3)CCN21 (centres unmarked) [Compound 141]	56	89
CC(C)(C)SC1CCC([N+](=O)[O-])=C2N(Cc3ccc(Cl)nc3)CCN21 (centres unmarked) [Compound 142]	67	88
CCCCCSC1CCC([N+](=O)[O-])=C2N(Cc3ccc(Cl)nc3)CCN21 (centres unmarked) [Compound 143]	23	34
CCC(C)SC1CCC([N+](=O)[O-])=C2N(Cc3ccc(Cl)nc3)CCN21 (centres unmarked) [Compound 144]	12	56
CC(C)CCSC1CCC([N+](=O)[O-])=C2N(Cc3ccc(Cl)nc3)CCN21 (centres unmarked) [Compound 145]	67	78
CCCC(C)SC1CCC([N+](=O)[O-])=C2N(Cc3ccc(Cl)nc3)CCN21 (centres unmarked) [Compound 146]	35	97
CC(C)(C)CSC1CCC([N+](=O)[O-])=C2N(Cc3ccc(Cl)nc3)CCN21 (centres unmarked) [Compound 147]	56	99
COCCSC1CCC([N+](=O)[O-])=C2N(Cc3ccc(Cl)nc3)CCN21 (centres unmarked) [Compound 148]	67	89
CCOCCSC1CCC([N+](=O)[O-])=C2N(Cc3ccc(Cl)nc3)CCN21 (centres unmarked) [Compound 149]	98	100
CC(=O)OC1CCC([N+](=O)[O-])=C2N(Cc3cnc(Cl)s3)CCN21 (centres unmarked) [Compound 152]	3	0
CCC(=O)OC1CCC([N+](=O)[O-])=C2N(Cc3cnc(Cl)s3)CCN21 (centres unmarked) [Compound 153]	29	38
O=C(OC1CCC([N+](=O)[O-])=C2N(Cc3cnc(Cl)s3)CCN21)C(Cl)(Cl)Cl (centres unmarked) [Compound 154]	93	100
O=C(OC1CCC([N+](=O)[O-])=C2N(Cc3cnc(Cl)s3)CCN21)C(F)(F)F (centres unmarked) [Compound 155]	48	90
CS(=O)(=O)OC1CCC([N+](=O)[O-])=C2N(Cc3cnc(Cl)s3)CCN21 (centres unmarked) [Compound 156]	78	92
O=[N+]([O-])C1=C2N(Cc3cnc(Cl)s3)CCN2C(OS(=O)(=O)C(F)(F)F)CC1 (centres unmarked) [Compound 157]	56	100
O=[N+]([O-])C1=C2N(Cc3cnc(Cl)s3)CCN2C(OS(=O)(=O)c2ccccc2)CC1 (centres unmarked) [Compound 158]	6	7
O=C(OC1CCC([N+](=O)[O-])=C2N(Cc3cnc(Cl)s3)CCN21)c1cccnc1 (centres unmarked) [Compound 159]	0	8
O=C(OC1CCC([N+](=O)[O-])=C2N(Cc3cnc(Cl)s3)CCN21)c1ccccn1 (centres unmarked) [Compound 160]	4	8
O=C(OC1CCC([N+](=O)[O-])=C2N(Cc3cnc(Cl)s3)CCN21)c1ccccc1 (centres unmarked) [Compound 161]	3	5

— patent US7655665B2, “Nitromethylene derivatives and their use” (East China University of Science and Technology, priority 2004, dated 2010)
